The text below walks through data of US10065928B2, “Quinolinone compound and use thereof” (Sunshine Lake Pharma Co., Ltd., priority 2014, dated 2018).

As usually defined, the EC50 is the concentration needed to bring the measured effect to its halfway point. Read a low EC50 as a more potent agent. As usually defined, the AUC(0-t) is exposure summed from dosing to a finite time, without extrapolation to infinity. Read a high AUC(0-t) as more exposure. As usually defined, the Cmax is the highest concentration seen after dosing. Broadly, the Tmax is the time at which the peak concentration occurs. What is called half-life is the time needed for the level to fall by half in the phase considered. The low end stands for fast loss, the high end for slow loss.

Data set [1] concerns erythropoietin (EPO) production in Hep3B cells. Briefly: Activity in inducing erythropoietin (EPO) production in vitro, Hep3B cells, EPO ELISA. It is filed as cell-based. The following applies: Homo sapiens, 24 h, EPO in supernatant by ELISA. On the procedure:
The activities of compounds of the invention in inducing erythropoietin (EPO) production were assessed by using human live cancer cell strain Hep3B (ATCC: American type culture collection, Manassas, Va.). Hep3B cells seeded in a 96-well plate with a density of 2.5×10^4 cells/well were cultivated overnight in DMEM culture medium (Dulbecco's Modified Eagle's Medium) at 37° C. in the presence of 10% fetal bovine serum (FBS). The next day, the supernatant liquid of culture medium was abandoned by suction, and to the residue was added fresh DMEM (containing 0.5% DMSO, 0.5% FBS) containing compound of the invention with a series of concentrations (0.31160.00 μM) or containing solvent used for comparison. The cells were cultivated at 37° C. for 24 h. The supernatant liquid was collected and the EPO concentration of the supernatant was quantified by using human EPO ELISA kit (Abcam). The activity of each compound in inducing erythropoietin (EPO) production was represented by half maximal effective concentration (EC50).
Background: ELISA stands for enzyme-linked immunosorbent assay.

Data set [2] can be described thus: Pharmacokinetic assay in male SD rats (iv and oral). The class given is in vivo. The following applies: for F: po 5 mg/kg vs iv 1 mg/kg; for AUC(0-t) / Cmax / Tmax / clearance / half-life / Vd: rat, plasma; for Vd: read-out: Vss. On the procedure:
Preparation of test compound solutions: the test compound solution was prepared for oral and intravenous administration by using 5% DMSO, 5% Solutol HS 15 and 90% normal saline.
Male SD rats weighing 190-250 g were randomly divided into two groups, and each group had three rats; one group was administered with test compound at a dose of 1.0 mg/kg by intravenous injection, the other group was administered with test compound at a dose of 5.0 mg/kg by oral. After administering, blood samples were collected at time points of 0.0833, 0.25, 0.5, 1.0, 2.0, 4.0, 7.0 and 24 h. Standard curve was plotted based on concentrations of the samples in a suitable range, and the concentrations of test compounds in plasma samples were determined by using AB SCIEX API4000 LC-MS/MS in MRM mode. Pharmacokinetic parameters were calculated according to drug concentration−time curve using a noncompartmental method with WinNonLin 6.3 software.

`Cn1c(=O)c(C(=O)NCC(=O)O)c(O)c2ccc(Oc3cc(Cl)ccc3F)cc21` [Example 22, 2-(7-(5-chloro-2-fluorophenoxy)-4-hydroxy-1-methyl-2-oxo-1,2-dihydroquinoline-3-carboxamido)acetic acid] showed a 50% effective concentration (EC50) in data set [1] of 4.18 µM. Further, the F in data set [2] stood at 108.6%. For the same molecule, in data set [2] (iv, 1 mg/kg), the exposure AUC(0-t) stood at 10800 ng·h/mL, the highest concentration (Cmax) was 10100 ng/mL, the Tmax stood at 4.98 min and the clearance came to 1.56 mL/min/kg. Besides, in data set [2] (iv, 1 mg/kg), the half-life was 57.5 min and the Vd turned out to be 0.146 L/kg. Further, in data set [2] (po, 5 mg/kg), the area under the curve AUC(0-t) was found to be 58700 ng·h/mL, the Cmax came out at 10700 ng/mL, the time to peak (Tmax) was 50 min and the half-life is 167 min.

As for `Cn1c(=O)c(C(=O)NCC(=O)O)c(O)c2ccc(Oc3ccc(F)cc3)cc21` [Example 47, 2-(7-(4-fluorophenoxy)-4-hydroxy-1-methyl-2-oxo-1,2-dihydroquinoline-3-carboxamido)acetic acid], in data set [1], the EC50 came out at 3.92 µM. This molecule had a F in data set [2] of 90.7%. For the same molecule, in data set [2] (iv, 1 mg/kg), the exposure AUC(0-t) worked out at 10200 ng·h/mL, the maximum concentration (Cmax) came out at 6400 ng/mL, the Tmax was 4.98 min and the clearance came to 1.66 mL/min/kg. In data set [2] (iv, 1 mg/kg), the half-life was 63.6 min and the Vd was 0.144 L/kg. For the same molecule, in data set [2] (po, 5 mg/kg), the AUC(0-t) was found to be 46200 ng·h/mL, the highest level (Cmax) was 11500 ng/mL, the time of peak concentration (Tmax) is 30 min and the half-life is 158 min.

Molecule `Cn1c(=O)c(C(=O)NCC(=O)O)c(O)c2ccc(Oc3ccc(Cl)cc3)cc21` [Example 13, 2-(7-(4-chlorophenoxy)-4-hydroxy-1-methyl-2-oxo-1,2-dihydroquinoline-3-carboxamido)acetic acid] displayed an EC50 in data set [1] of 7.1 µM. The molecule also gave a F in data set [2] of 94.6%. Further, in data set [2] (iv, 1 mg/kg), the AUC(0-t) is 13100 ng·h/mL, the highest level (Cmax) was 8480 ng/mL, the Tmax was found to be 4.98 min and the clearance turned out to be 1.32 mL/min/kg. Further, in data set [2] (iv, 1 mg/kg), the half-life is 57.5 min and the Vd came out at 0.107 L/kg. Also, in data set [2] (po, 5 mg/kg), the AUC(0-t) is 57000 ng·h/mL, the concentration peaked (Cmax) at 12300 ng/mL, the Tmax came out at 70.2 min and the half-life is 254 min.

In data set [1], `Cn1c(=O)c(C(=O)NCC(=O)O)c(O)c2ccc(Oc3ccc(Cl)cc3Cl)cc21` [Example 31, 2-(7-(2,4-dichlorophenoxy)-4-hydroxy-1-methyl-2-oxo-1,2-dihydroquinoline-3-carboxamido)acetic acid] yielded an EC50 of 4.15 µM.

Consider `Cn1c(=O)c(C(=O)NCC(=O)O)c(O)c2ccc(Oc3ccccc3Cl)cc21` [Example 48, 2-(7-(2-chlorophenoxy)-4-hydroxy-1-methyl-2-oxo-1,2-dihydroquinoline-3-carboxamido)acetic acid], for which the midpoint of the response in data set [1], the EC50, lay at 6.6 µM.

`Cn1c(=O)c(C(=O)NCC(=O)O)c(O)c2ccc(Oc3ccc4ccccc4c3)cc21` [Example 8, 2-(4-hydroxy-1-methyl-7-(naphthalen-2-yloxy)-2-oxo-1,2-dihydroquinoline-3-carboxamido)acetic acid] returned an EC50 in data set [1] of 1.63 µM. Compared with the last molecule, the EC50 is about 4-fold lower.

On to `Cn1c(=O)c(C(=O)NCC(=O)O)c(O)c2cc(S(=O)(=O)n3ccc4ccccc43)ccc21` [Example 7, 2-(6-((1H-indol-1-yl)sulfonyl)-4-hydroxy-1-methyl-2-oxo-1,2-dihydroquinoline-3-carboxamido)acetic acid], for which the response in data set [1] was half-maximal at 6.83 µM (EC50).

With `CN(C(=O)c1ccc2c(c1)c(O)c(C(=O)NCC(=O)O)c(=O)n2C)C(c1ccccc1)c1ccccc1` [Example 11, 2-(6-(benzhydryl(methyl)carbamoyl)-4-hydroxy-1-methyl-2-oxo-1,2-dihydroquinoline-3-carboxamido)acetic acid], the EC50 in data set [1] is 10.2 µM.

As to `Cn1c(=O)c(C(=O)NCC(=O)O)c(O)c2ccc(Oc3ccc(F)c(Cl)c3)cc21` [Example 29, 2-(7-(3-chloro-4-fluorophenoxy)-4-hydroxy-1-methyl-2-oxo-1,2-dihydroquinoline-3-carboxamido)acetic acid], in data set [1], a half-maximal response (EC50) required 10.2 µM.

Turning to `Cn1c(=O)c(C(=O)NCC(=O)O)c(O)c2ccc(Oc3ccc(Cl)cc3F)cc21` [Example 21, 2-(7-(4-chloro-2-fluorophenoxy)-4-hydroxy-1-methyl-2-oxo-1,2-dihydroquinoline-3-carboxamido)acetic acid], the EC50 in data set [1] was 5.75 µM.

In data set [1], `Cn1c(=O)c(C(=O)NCC(=O)O)c(O)c2ccc(Oc3cccc(Cl)c3)cc21` [Example 12, 2-(7-(3-chlorophenoxy)-4-hydroxy-1-methyl-2-oxo-1,2-dihydroquinoline-3-carboxamido)acetic acid] came in with an EC50 of 4.24 µM.

Consider `Cn1c(=O)c(C(=O)NCC(=O)O)c(O)c2ccc(Oc3cc(F)cc(F)c3)cc21` [Example 18, 2-(7-(3,5-difluorophenoxy)-4-hydroxy-1-methyl-2-oxo-1,2-dihydroquinoline-3-carboxamido)acetic acid], for which the EC50 in data set [1] was determined as 6.28 µM. The EC50 values of the last two molecules are within 1.5-fold of each other.

For `Cn1c(=O)c(C(=O)NCC(=O)O)c(O)c2ccc(Oc3ccc(F)c(F)c3)cc21` [Example 17, 2-(7-(3,4-difluorophenoxy)-4-hydroxy-1-methyl-2-oxo-1,2-dihydroquinoline-3-carboxamido)acetic acid], the response in data set [1] was half-maximal at 3.16 µM (EC50).

In turn, `Cn1c(=O)c(C(=O)NCC(=O)O)c(O)c2ccc(Oc3cc(Cl)ccc3Cl)cc21` [Example 35, 2-(7-(2,5-dichlorophenoxy)-4-hydroxy-1-methyl-2-oxo-1,2-dihydroquinoline-3-carboxamido)acetic acid] had an EC50 in data set [1] of 2.25 µM.

`Cn1c(=O)c(C(=O)NCC(=O)O)c(O)c2ccc(Oc3cc(Cl)cc(Cl)c3)cc21` [Example 34, 2-(7-(3,5-dichlorophenoxy)-4-hydroxy-1-methyl-2-oxo-1,2-dihydroquinoline-3-carboxamido)acetic acid] returned an EC50 in data set [1] of 20.2 µM.

`Cn1c(=O)c(C(=O)NCC(=O)O)c(O)c2ccc(Oc3cccc(Cl)c3Cl)cc21` [Example 30, 2-(7-(2,3-dichlorophenoxy)-4-hydroxy-1-methyl-2-oxo-1,2-dihydroquinoline-3-carboxamido)acetic acid] gave a concentration for a half-maximal effect (EC50) in data set [1] of 1.97 µM. This EC50 is about 10-fold lower than that of the molecule before.

In data set [1], `Cn1c(=O)c(C(=O)NCC(=O)O)c(O)c2ccc(Oc3ccncc3)cc21` [Example 43, 2-(4-hydroxy-1-methyl-2-oxo-7-(pyridin-4-yloxy)-1,2-dihydroquinoline-3-carboxamido)acetic acid] returned an EC50 of 28.9 µM.

For the molecule `Cn1c(=O)c(C(=O)NCC(=O)O)c(O)c2ccc(Oc3ccc(Cl)c(F)c3)cc21` [Example 25, 2-(7-(4-chloro-3-fluorophenoxy)-4-hydroxy-1-methyl-2-oxo-1,2-dihydroquinoline-3-carboxamido)acetic acid], in data set [1], the 50% effective concentration (EC50) was found to be 10.2 µM.

With `Cn1c(=O)c(C(=O)NCC(=O)O)c(O)c2ccc(Oc3cc(F)ccc3Cl)cc21` [Example 27, 2-(7-(2-chloro-5-fluorophenoxy)-4-hydroxy-1-methyl-2-oxo-1,2-dihydroquinoline-3-carboxamido)acetic acid], a half-maximal effect in data set [1] (EC50) was put at 6.85 µM.

In data set [1], `Cn1c(=O)c(C(=O)NCC(=O)O)c(O)c2ccc(Oc3c(F)cccc3Cl)cc21` [Example 23, 2-(7-(2-chloro-6-fluorophenoxy)-4-hydroxy-1-methyl-2-oxo-1,2-dihydroquinoline-3-carboxamido)acetic acid] came in with an EC50 of 9.23 µM.

In data set [1], `Cn1c(=O)c(C(=O)NCC(=O)O)c(O)c2ccc(Oc3cccc(Cl)c3F)cc21` [Example 20, 2-(7-(3-chloro-2-fluorophenoxy)-4-hydroxy-1-methyl-2-oxo-1,2-dihydroquinoline-3-carboxamido)acetic acid] showed an EC50 of 3.75 µM. This EC50 is about 2.5-fold lower than that of the molecule before.

In turn, `Cn1c(=O)c(C(=O)NCC(=O)O)c(O)c2ccc(Oc3ccc(Cl)c(Cl)c3)cc21` [Example 33, 2-(7-(3,4-dichlorophenoxy)-4-hydroxy-1-methyl-2-oxo-1,2-dihydroquinoline-3-carboxamido)acetic acid] returned a concentration for a half-maximal effect (EC50) in data set [1] of 2.56 µM. This EC50 and that of the molecule before are within 1.5-fold of each other.

`COc1ccccc1Oc1ccc2c(O)c(C(=O)NCC(=O)O)c(=O)n(C)c2c1` [Example 38, 2-(4-hydroxy-7-(2-methoxyphenoxy)-1-methyl-2-oxo-1,2-dihydroquinoline-3-carboxamido)acetic acid] gave an EC50 in data set [1] of 8.85 µM. Compared with the last molecule, the EC50 is about 3.5-fold higher.

As to `Cn1c(=O)c(C(=O)NCC(=O)O)c(O)c2cc(F)c(Oc3ccccc3)cc21` [Example 39, 2-(6-fluoro-4-hydroxy-1-methyl-2-oxo-7-phenoxy-1,2-dihydroquinoline-3-carboxamido)acetic acid], it took 4.89 µM to reach a half-maximal effect in data set [1] (EC50).
